For experiment [1], the target named is T1, IRAK3 (Homo sapiens, UniProt Q9Y616).
T1 construct: IRAK Endogenous HTRF Degradation Assay; endogenous in cells
T1 sequence (Q9Y616 1-596): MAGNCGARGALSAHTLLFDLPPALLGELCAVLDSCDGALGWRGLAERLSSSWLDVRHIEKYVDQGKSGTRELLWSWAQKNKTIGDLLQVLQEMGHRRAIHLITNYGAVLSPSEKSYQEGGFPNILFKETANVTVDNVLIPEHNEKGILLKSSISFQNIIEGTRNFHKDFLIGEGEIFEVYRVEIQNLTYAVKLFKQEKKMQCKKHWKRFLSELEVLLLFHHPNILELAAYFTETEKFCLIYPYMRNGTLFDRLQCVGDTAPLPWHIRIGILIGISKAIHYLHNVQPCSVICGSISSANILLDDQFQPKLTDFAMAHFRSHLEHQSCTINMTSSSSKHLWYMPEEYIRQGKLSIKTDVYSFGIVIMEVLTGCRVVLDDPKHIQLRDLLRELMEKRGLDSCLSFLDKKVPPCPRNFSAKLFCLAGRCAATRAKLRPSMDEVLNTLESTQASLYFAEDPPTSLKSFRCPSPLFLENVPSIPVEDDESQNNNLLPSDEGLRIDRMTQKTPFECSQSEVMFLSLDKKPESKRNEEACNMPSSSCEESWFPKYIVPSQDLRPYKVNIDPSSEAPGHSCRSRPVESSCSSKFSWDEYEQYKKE
The experiment in a line: IRAK endogenous HTRF degradation assay (Total-IRAK3 HTRF kit). The experiment is classed as cell-based. As to conditions: overnight incubation, lowest percentage of protein remaining. In a few lines: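 Cells (~50 k) incubated overnight with 3-fold serial dilutions of compound, then lysed; total IRAK3 read by HTRF (665/615 nm ratio ×10,000), normalized to DMSO as 100%. EC50 from four-parameter logistic fit; Dmax = 100 − Ymin (lowest % protein remaining); DC50 = concentration giving 50% degradation.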

Experiment [2] concerns the target T1, IRAK3. The experiment can be described thus: IRAK3 biochemical binding assay (LanthaScreen Eu Kinase Binding, TR-FRET). An outline of the steps:
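TR-FRET tracer-displacement binding with 10 nM IRAK3, 2 nM Eu-anti-GST antibody and 10 nM tracer in 50 mM HEPES pH 7.4, MgCl2, 1 mM EGTA, 0.01% Brij-35. Compounds in 3-fold dilutions, 1 h at room temperature. 665/615 nm ratio gave % inhibition; IC50 and Hill slope from dose-response fit.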
A general note: Time-resolved FRET reads energy transfer from a long-lived donor to a nearby acceptor.

SMILES strings stand for the structures.

As usually defined, the IC50 is the concentration that inhibits the measured activity by half. High values mean lower potency, low ones higher potency.

Turning to `Cc1cc(-c2cnc(Nc3cnn([C@H]4CC[C@@H](CN5CCN(c6ccc(C7CCC(=O)NC7=O)cc6)CC5)CC4)c3)c3nccn23)c(F)cc1F` (relative stereo) [Compound 71, 3-(4-(4-(((cis)-4-(4-((5-(2,4-difluoro-5-methylphenyl)imidazo[1,2-a]pyrazin-8-yl)amino)-1H-pyrazol-1-yl)cyclohexyl)methyl)piperazin-1-yl)phenyl) piperidine-2,6-dione], the “IRAK3 HTRF degradation Ymin” value at IRAK3 [1] is 13%. On IRAK3 [2], the IC50 turned out to be 2.8 nM.

For the compound `Cc1cccc(-c2cnc(Nc3cnn(C4CCN(CC(=O)N5CCN(c6ccc7c(c6)C(=O)N(C6CCC(=O)NC6=O)C7=O)CC5)CC4)c3)c3nccn23)c1` (stereo not shown) [Compound 1, 2-(2,6-dioxopiperidin-3-yl)-5-(4-(2-(4-(4-((5-(m-tolyl)imidazo[1,2-a]pyrazin-8-yl)amino)-1H-pyrazol-1-yl)piperidin-1-yl)acetyl)piperazin-1-yl)isoindoline-1,3-dione], the “IRAK3 HTRF degradation Ymin” value at IRAK3 [1] was 27%. Besides, the IC50 at IRAK3 [2] is 5 nM.

Turning to `Cc1cccc(-c2cnc(Nc3cnn(C4CCN(CCN5CCN(c6ccc7c(c6)C(=O)N(C6CCC(=O)NC6=O)C7=O)CC5)CC4)c3)c3nccn23)c1` (stereo not shown) [Compound 2, 2-(2,6-dioxopiperidin-3-yl)-5-(4-(2-(4-(4-((5-(m-tolyl)imidazo[1,2-a]pyrazin-8-yl)amino)-1H-pyrazol-1-yl)piperidin-1-yl)ethyl)piperazin-1-yl)isoindoline-1,3-dione], the “IRAK3 HTRF degradation Ymin” value on IRAK3 [1] is listed as 18%. The compound further registered an IC50 at IRAK3 [2] of 4.2 nM.

Take `Cc1cccc(-c2cnc(Nc3cnn(C4CCN(CCCCN5CCN(c6ccc(C7CCC(=O)NC7=O)cc6)CC5)CC4)c3)c3nccn23)c1` (stereo not shown) [Compound 3, 3-(4-(4-(4-(4-(4-((5-(m-tolyl)imidazo[1,2-a]pyrazin-8-yl)amino)-1H-pyrazol-1-yl)piperidin-1-yl)butyl)piperazin-1-yl)phenyl) piperidine-2,6-dione]: the “IRAK3 HTRF degradation Ymin” value at IRAK3 [1] was determined as 11%. Besides, at IRAK3 [2], the IC50 was found to be 1.3 nM.

In the case of `Cc1cccc(-c2cnc(Nc3cnn(C4CCN(CCCN5CCN(c6ccc(C7CCC(=O)NC7=O)cc6)CC5)CC4)c3)c3nccn23)c1` (stereo not shown) [Compound 4, 3-(4-(4-(3-(4-(4-((5-(m-tolyl)imidazo[1,2-a]pyrazin-8-yl)amino)-1H-pyrazol-1-yl)piperidin-1-yl)propyl)piperazin-1-yl)phenyl) piperidine-2,6-dione], the “IRAK3 HTRF degradation Ymin” value on IRAK3 [1] was 17%. In addition, the IC50 at IRAK3 [2] was 2.3 nM.

For the compound `Cc1cc(-c2cnc(Nc3cnn(C4CCN(CC(=O)N5CCN(c6ccc7c(c6)C(=O)N(C6CCC(=O)NC6=O)C7=O)CC5)CC4)c3)c3nccn23)c(F)cc1F` (stereo not shown) [Compound 6, 5-(4-(2-(4-(4-((5-(2,4-difluoro-5-methylphenyl)imidazo[1,2-a]pyrazin-8-yl)amino)-1H-pyrazol-1-yl)piperidin-1-yl)acetyl)piperazin-1-yl)-2-(2,6-dioxopiperidin-3-yl)isoindoline-1,3-dione], the “IRAK3 HTRF degradation Ymin” value on IRAK3 [1] stood at 23%. The compound further registered an IC50 on IRAK3 [2] of 1 nM.

Turning to `Cc1cc(-c2cnc(Nc3cnn(C4CCN(CCN5CCN(c6ccc(C7CCC(=O)NC7=O)cc6)C[C@@H]5C)CC4)c3)c3nccn23)c(F)cc1F` (stereo partly drawn) [Compound 7, 3-(4-((S)-4-(2-(4-(4-((5-(2,4-difluoro-5-methylphenyl)imdazo [1,2-a]pyrazin-8-yl)amino)-1H-pyrazol-1-yl)piperidin-1-yl)ethyl)-3-methylpiperazin-1-yl)phenyl) piperidine-2,6-dione], the “IRAK3 HTRF degradation Ymin” value at IRAK3 [1] came out at 12%. At IRAK3 [2], the IC50 stood at 1.5 nM.

As to `Cc1cc(-c2cnc(Nc3cnn(C4CCN(CCN5CCN(c6ccc(C7CCC(=O)NC7=O)cc6)CC5)CC4)c3)c3nccn23)c(F)cc1F` (stereo not shown) [Compound 8, 3-(4-(4-(2-(4-(4-((5-(2,4-difluoro-5-methylphenyl)imidazo[1,2-a]pyrazin-8-yl)amino)-1H-pyrazol-1-yl)piperidin-1-yl)ethyl)piperazin-1-yl)phenyl)piperidine-2,6-dione], at IRAK3 [1], the “IRAK3 HTRF degradation Ymin” value turned out to be 9%. The IC50 on IRAK3 [2] turned out to be 1.3 nM.

Turning to `Cc1cc(-c2cnc(Nc3cnn(C4CCN(CCN5CCN(c6ccc(C7CCC(=O)NC7=O)cc6)C[C@H]5C)CC4)c3)c3nccn23)c(F)cc1F` (stereo partly drawn) [Compound 9, 3-(4-((R)-4-(2-(4-(4-((5-(2,4-difluoro-5-methylphenyl)imdazo [1,2-a]pyrazin-8-yl)amino)-1H-pyrazol-1-yl)piperidin-1-yl)ethyl)-3-methylpiperazin-1-yl)phenyl) piperidine-2,6-dione], on IRAK3 [1], the “IRAK3 HTRF degradation Ymin” value was 14%. At IRAK3 [2], this compound gave a half-inhibitory concentration (IC50) of 1.1 nM.

In the case of `Cc1cc(-c2cnc(Nc3cnn(C4CCN(CC(=O)N5CCN(c6ccc7c(c6)CN(C6CCC(=O)NC6=O)C7=O)CC5)CC4)c3)c3nccn23)c(F)cc1F` (stereo not shown) [Compound 10, 3-(5-(4-(2-(4-(4-((5-(2,4-difluoro-5-methylphenyl)imidazo[1,2-a]pyrazin-8-yl)amino)-1H-pyrazol-1-yl)piperidin-1-yl)acetyl)piperazin-1-yl)-1-oxoisoindolin-2-yl)piperidine-2,6-dione], on IRAK3 [1], the “IRAK3 HTRF degradation Ymin” value was found to be 14%. Besides, the IC50 at IRAK3 [2] stood at 0.51 nM.

Regarding `Cc1cc(-c2cnc(Nc3cnn([C@H]4CC[C@H](CCN5CCN(c6ccc(C7CCC(=O)NC7=O)cc6)CC5)CC4)c3)c3nccn23)c(F)cc1F` (stereo partly drawn) [Compound 11, 3-(4-(4-(2-((trans)-4-(4-((5-(2,4-difluoro-5-methylphenyl)imidazo[1,2-a]pyrazin-8-yl)amino)-1H-pyrazol-1-yl)cyclohexyl)ethyl)piperazin-1-yl)phenyl)piperidine-2,6-dione], the “IRAK3 HTRF degradation Ymin” value at IRAK3 [1] was 12%. At IRAK3 [2], the IC50 came out at 8.9 nM.

On to `Cc1cc(-c2ccc(Nc3cnn(C4CCN(CCN5CCN(c6ccc(C7CCC(=O)NC7=O)cc6)CC5)CC4)c3)c3nccn23)c(F)cc1F` (stereo not shown) [Compound 12, 3-(4-(4-(2-(4-(4-((5-(2,4-difluoro-5-methylphenyl)imdazo [1,2-a]pyridin-8-yl)amino)-1H-pyrazol-1-yl)piperidin-1-yl)ethyl)piperazin-1-yl)phenyl) piperidine-2,6-dione], for which the “IRAK3 HTRF degradation Ymin” value at IRAK3 [1] came out at 13%. This compound came in with an IC50 on IRAK3 [2] of 2 nM.

As to `Cc1cc(-c2cnc(Nc3cnn(C4CCN(CCN5[C@H](C)CN(c6ccc(C7CCC(=O)NC7=O)cc6)C[C@@H]5C)CC4)c3)c3nccn23)c(F)cc1F` (stereo partly drawn) [Compound 13, 3-(4-((3S,5R)-4-(2-(4-(4-((5-(2,4-difluoro-5-methylphenyl)imdazo [1,2-a]pyrazin-8-yl)amino)-1H-pyrazol-1-yl)piperidin-1-yl)ethyl)-3,5-dimethylpiperazin-1-yl)phenyl) piperidine-2,6-dione], the “IRAK3 HTRF degradation Ymin” value at IRAK3 [1] amounted to 11%. Also, the IC50 at IRAK3 [2] was found to be 1.3 nM.

In the case of `Cc1cc(-c2cnc(Nc3cnn([C@H]4CC[C@@H](CCN5CCN(c6ccc(C7CCC(=O)NC7=O)cc6)CC5)CC4)c3)c3nccn23)c(F)cc1F` (stereo partly drawn) [Compound 14, 3-(4-(4-(2-((cis)-4-(4-((5-(2,4-difluoro-5-methylphenyl)imidazo[1,2-a]pyrazin-8-yl)amino)-1H-pyrazol-1-yl)cyclohexyl)ethyl)piperazin-1-yl)phenyl) piperidine-2,6-dione], the “IRAK3 HTRF degradation Ymin” value on IRAK3 [1] is recorded as 13%. Besides, the IC50 on IRAK3 [2] is 4.3 nM.

`Cc1cccc(-c2cnc(Nc3cnn(C4CCN(CC(=O)N5CCN(c6ccc7c(c6)C(=O)N(C6CCC(=O)NC6=O)C7)CC5)CC4)c3)c3nccn23)c1` (stereo not shown) [Compound 16, 3-(1-oxo-6-(4-(2-(4-(4-((5-(m-tolyl)imidazo[1,2-a]pyrazin-8-yl)amino)-1H-pyrazol-1-yl)piperidin-1-yl)acetyl)piperazin-1-yl)isoindolin-2-yl)piperidine-2,6-dione]: the “IRAK3 HTRF degradation Ymin” value at IRAK3 [1] stood at 45%. Moreover, the IC50 at IRAK3 [2] worked out at 1.5 nM.

Turning to `Cc1cc(-c2cnc(Nc3cnn(C4CCN(CC(=O)N5CCN(c6ccc(C7CCC(=O)NC7=O)cc6)CC5)CC4)c3)c3nccn23)c(F)cc1F` (stereo not shown) [Compound 17, 3-(4-(4-(2-(4-(4-((5-(2,4-difluoro-5-methylphenyl)imidazo[1,2-a]pyrazin-8-yl)amino)-1H-pyrazol-1-yl)piperidin-1-yl)acetyl)piperazin-1-yl)phenyl)piperidine-2,6-dione], on IRAK3 [1], the “IRAK3 HTRF degradation Ymin” value is given as 15%. The IC50 at IRAK3 [2] amounted to 1.3 nM.

Consider `Cc1cc(-c2cnc(Nc3cnn(C4CCN(CC(=O)N5CCN(c6ccc7c(c6)C(=O)N(C6CCC(=O)NC6=O)C7)CC5)CC4)c3)c3nccn23)c(F)cc1F` (stereo not shown) [Compound 18, 3-(6-(4-(2-(4-(4-((5-(2,4-difluoro-5-methylphenyl)imidazo[1,2-a]pyrazin-8-yl)amino)-1H-pyrazol-1-yl)piperidin-1-yl)acetyl)piperazin-1-yl)-1-oxoisoindolin-2-yl)piperidine-2,6-dione], for which the “IRAK3 HTRF degradation Ymin” value at IRAK3 [1] amounted to 20%. On IRAK3 [2], this compound registered an IC50 of 0.5 nM.
